Measurements published in ChEMBL document CHEMBL1201862, “PubChem BioAssay data set” (2004).
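Following 48 hours of exposure in 96-well plates, responses at five concentrations were used to interpolate endpoints linearly. Abbreviation: GI50, concentration required for 50% inhibition of growth.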 Calls of active or inactive are those of the source. No stated cut-off is given here; in the data, active = GI50 up to about 1.1 µM and inactive = higher.

What was measured:
Experiment in all cases: NCI-60 cell line screen, 48 h
OVCAR-8 = tested on: OVCAR-8
IGROV-1 = tested on: IGROV-1
COLO 205 = tested on: COLO 205
Malme-3M = tested on: Malme-3M
OVCAR-3 = tested on: OVCAR-3
CAKI-1 = tested on: CAKI-1
NCI-H226 = tested on: NCI-H226
OVCAR-4 = tested on: OVCAR-4
M14 = tested on: M14
HOP-62 = tested on: HOP-62
KM-20L2 = tested on: KM-20L2
ACHN = tested on: ACHN
DMS-273 = tested on: DMS-273
MOLT-4 = tested on: MOLT-4
SF-295 = tested on: SF-295
M19-MEL = tested on: M19-MEL
NCI-H460 = tested on: NCI-H460
RPMI-8226 = tested on: RPMI-8226
HCT-116 = tested on: HCT-116
SF-268 = tested on: SF-268
TK-10 = tested on: TK-10
U-251 = tested on: U-251
NCI-H522 = tested on: NCI-H522
SF-539 = tested on: SF-539
SN12C = tested on: SN12C
CCRF-CEM = tested on: CCRF-CEM
EKVX = tested on: EKVX
SW-620 = tested on: SW-620
XF498 = tested on: XF498
SK-MEL-28 = tested on: SK-MEL-28
UACC-257 = tested on: UACC-257
DLD-1 = tested on: DLD-1
SNB-75 = tested on: SNB-75
NCI-H23 = tested on: NCI-H23
UO-31 = tested on: UO-31
DMS-114 = tested on: DMS-114
RXF 393 = tested on: RXF 393
KM12 = tested on: KM12
LOX IMVI = tested on: LOX IMVI
HCC 2998 = tested on: HCC 2998
A498 = tested on: A498
HL-60 = tested on: HL-60
HCT-15 = tested on: HCT-15
RXF 631 = tested on: RXF 631
SNB-19 = tested on: SNB-19
786-0 = tested on: 786-0
SK-OV-3 = tested on: SK-OV-3
SK-MEL-2 = tested on: SK-MEL-2
HT-29 = tested on: HT-29
UACC-62 = tested on: UACC-62
OVCAR-5 = tested on: OVCAR-5
K562 = tested on: K562
HOP-18 = tested on: HOP-18
A549 = tested on: A549
SNB-78 = tested on: SNB-78
HOP-92 = tested on: HOP-92

## O=c1ncc(F)cn1C1OC(CO)C(O)C1O (stereo unspecified)
OVCAR-8
  GI50: > 27.7 µM (inactive)
IGROV-1
  GI50: > 30.8 µM (inactive)
COLO 205
  GI50: > 24.6 µM (inactive)
Malme-3M
  GI50: > 29.8 µM (inactive)
OVCAR-3
  GI50: > 26.7 µM (inactive)
CAKI-1
  GI50: 15.5 µM (inactive)
NCI-H226
  GI50: > 19.1 µM (inactive)
OVCAR-4
  GI50: > 80.5 µM (inactive)
M14
  GI50: > 52 µM (inactive)
HOP-62
  GI50: > 30.7 µM (inactive)
KM-20L2
  GI50: > 32.9 µM (inactive)
ACHN
  GI50: > 44 µM (inactive)
DMS-273
  GI50: 16.7 µM (inactive)
MOLT-4
  GI50: > 20.7 µM (inactive)
SF-295
  GI50: > 29.7 µM (inactive)
M19-MEL
  GI50: > 24.6 µM (inactive)
NCI-H460
  GI50: 23.6 µM (inactive)
RPMI-8226
  GI50: 15.1 µM (inactive)
HCT-116
  GI50: 24.4 µM (inactive)
SF-268
  GI50: > 23.9 µM (inactive)
TK-10
  GI50: > 69.2 µM (inactive)
U-251
  GI50: > 14.9 µM (inactive)
NCI-H522
  GI50: > 32.7 µM (inactive)
SF-539
  GI50: > 34.9 µM (inactive)
SN12C
  GI50: > 17.4 µM (inactive)
CCRF-CEM
  GI50: 14.7 µM (inactive)
EKVX
  GI50: > 100 µM (inactive)
SW-620
  GI50: > 31.4 µM (inactive)
XF498
  GI50: > 100 µM (inactive)
SK-MEL-28
  GI50: > 45.6 µM (inactive)
UACC-257
  GI50: 14.1 µM (inactive)
DLD-1
  GI50: > 35.8 µM (inactive)
SNB-75
  GI50: 6.24 µM (inactive)
NCI-H23
  GI50: > 100 µM (inactive)
UO-31
  GI50: > 100 µM (inactive)
DMS-114
  GI50: > 21.2 µM (inactive)
RXF 393
  GI50: > 100 µM (inactive)
KM12
  GI50: > 30.5 µM (inactive)
LOX IMVI
  GI50: 16.7 µM (inactive)
HCC 2998
  GI50: 16.9 µM (inactive)
A498
  GI50: > 44.2 µM (inactive)
HL-60
  GI50: 19.3 µM (inactive)
HCT-15
  GI50: > 100 µM
RXF 631
  GI50: 41.6 µM (inactive)
SNB-19
  GI50: > 18.3 µM (inactive)
786-0
  GI50: > 36.4 µM (inactive)
SK-OV-3
  GI50: > 42.6 µM (inactive)
SK-MEL-2
  GI50: > 28.3 µM (inactive)
HT-29
  GI50: > 30.7 µM (inactive)
UACC-62
  GI50: > 37.6 µM (inactive)
OVCAR-5
  GI50: > 52 µM (inactive)
K562
  GI50: 7.38 µM (inactive)
HOP-18
  GI50: > 31.5 µM (inactive)
A549
  GI50: > 36.6 µM (inactive)
SNB-78
  GI50: > 29.7 µM (inactive)
HOP-92
  GI50: 23.8 µM (inactive)
